Key:
Opioid receptor [1] = target: T1, Opioid receptor (Rattus norvegicus, UniProt P33533+P34975+P33535); experiment: In vitro opioid receptor binding competition against 1 nM [3H]- Naltrexone in the absence of NaCl.; assay type: protein assay
Opioid receptor [2] = target: T1, Opioid receptor; experiment: In vitro opioid receptor binding competition against 1 nM [3H]- Naltrexone in the presence of 100 mM NaCl.; assay type: protein assay
[3] = target: Opioid receptor (Rattus norvegicus) (UniProt P33533+P34975+P33535); experiment: Ratio of IC50 value in presence of NaCl to that of NaCl absence against opioid receptor.; assay type: protein assay
[4] = Activity against specific binding of [3H]naltrxone at dose 200 nM & at 25 degree C in the absence of Na+ ion (unwashed )
[5] = Activity against specific binding of [3H]naltrxone at dose 200 nM & at 25 degree C in the absence of Na+ ion (washed)
[6] = Activity against specific binding of [3H]-naltrxone at dose 200 nM & at 25 degree C in the presence of Na+ ion (unwashed )
[7] = Activity against specific binding of [3H]naltrxone at dose 200 nM & at 25 degree C in the presence of Na+ ion (washed)
[8] = Activity against specific binding of [3H]naltrxone at dose 500 nM & at 37 degree C in the presence of Na+ ion (unwashed )
[9] = Activity against specific binding of [3H]naltrxone at dose 500 nM & at 37 degree C in the presence of Na+ ion(washed)
[10] = Activity against specific binding of [3H]naltrxone at dose 75 nM & at 37 degree C in the absence of Na+ ion (unwashed )
[11] = Activity against specific binding of [3H]naltrxone at dose 75 nM & at 37 degree C in the absence of Na+ ion (washed)

CC1CC2(CCC3(O)C4Cc5ccc(O)c6c5[C@@]3(CCN4C)C2O6)OC1=O (stereo partly specified)
IC50 (Opioid receptor [1]): 30 nM
IC50 (Opioid receptor [2]): 500 nM
Ratio [3]: 16.7

C=C1CC2(CCC3(O)[C@H]4Cc5ccc(O)c6c5[C@@]3(CCN4C)C2O6)OC1=O (stereo in doubt; 6b) [listing 1 of 2 here]
IC50 (Opioid receptor [1]): 125 nM
IC50 (Opioid receptor [2]): 880 nM

C=C1CC2(CCC3(O)[C@H]4Cc5ccc(O)c6c5[C@@]3(CCN4C)C2O6)OC1=O (stereo in doubt; 5b) [listing 1 of 2 here]
Control [4]: 35%
Control [5]: 79%
Control [6]: 43%
Control [7]: 63%
Control [8]: 34%
Control [9]: 56%
Control [10]: 66%
Control [11]: 97%
Ratio [3]: 7

Oc1ccc2c3c1OC1C4(CCC5(O)[C@@H](C2)N(CC2CC2)CC[C@]315)CO4 (stereo in doubt; 13a) [listing 1 of 2 here]
Ratio [3]: 0.6

CCOC(=O)[C@@H]1OC12CCC1(O)C3Cc4ccc(O)c5c4[C@@]1(CCN3C)C2O5 (stereo partly specified)
IC50 (Opioid receptor [1]): 15 nM
IC50 (Opioid receptor [2]): 200 nM
Ratio [3]: 13.3

C=C1C(=O)OC2C1CC1(O)[C@H]3Cc4ccc(O)c5c4[C@@]1(CCN3CC1CC1)C2O5 (stereo partly specified)
IC50 (Opioid receptor [1]): 10 nM
IC50 (Opioid receptor [2]): 7 nM
Ratio [3]: 0.7

CCOC(=O)[C@H]1OC12CCC1(O)[C@H]3Cc4ccc(O)c5c4[C@@]1(CCN3CC1CC1)C2O5 (stereo partly specified)
IC50 (Opioid receptor [1]): 2.3 nM
IC50 (Opioid receptor [2]): 3.5 nM
Ratio [3]: 1.5

O=C1C=CC2(CCC3(O)[C@H]4Cc5ccc(O)c6c5[C@@]3(CCN4CC3CC3)C2O6)O1 (stereo partly specified)
IC50 (Opioid receptor [1]): 10 nM
IC50 (Opioid receptor [2]): 10 nM
Ratio [3]: 1

C=C1CC2(CCC3(O)[C@H]4Cc5ccc(O)c6c5[C@@]3(CCN4CC3CC3)C2O6)OC1=O (stereo in doubt; 6a) [listing 1 of 2 here]
IC50 (Opioid receptor [1]): 12.5 nM
IC50 (Opioid receptor [2]): 15 nM

C=C1CC2(CCC3(O)[C@H]4Cc5ccc(O)c6c5[C@@]3(CCN4CC3CC3)C2O6)OC1=O (stereo in doubt; 5a) [listing 1 of 2 here]
IC50 (Opioid receptor [1]): 5 nM
IC50 (Opioid receptor [2]): 2 nM

C=C1CC2(CCC3(O)[C@H]4Cc5ccc(O)c6c5[C@@]3(CCN4CC3CC3)C2O6)OC1=O (stereo in doubt; 5a) [listing 2 of 2 here]
Ratio [3]: 0.4

C=C1CC2(CCC3(O)[C@H]4Cc5ccc(O)c6c5[C@@]3(CCN4C)C2O6)OC1=O (stereo in doubt; 6b) [listing 2 of 2 here]
Ratio [3]: 7

Oc1ccc2c3c1OC1C4(CCC5(O)[C@@H](C2)N(CC2CC2)CC[C@]315)CO4 (stereo in doubt; 12a) [listing 1 of 2 here]
IC50 (Opioid receptor [1]): 4 nM
IC50 (Opioid receptor [2]): 2 nM

CC1=CC2(CCC3(O)[C@H]4Cc5ccc(O)c6c5[C@@]3(CCN4CC3CC3)C2O6)OC1=O (stereo partly specified)
IC50 (Opioid receptor [1]): 40 nM
IC50 (Opioid receptor [2]): 70 nM
Ratio [3]: 1.8

CC1CC2(CCC3(O)[C@H]4Cc5ccc(O)c6c5[C@@]3(CCN4CC3CC3)C2O6)OC1=O (stereo partly specified)
IC50 (Opioid receptor [1]): 10 nM
IC50 (Opioid receptor [2]): 6 nM
Ratio [3]: 0.6

C=C1CC2(CCC3(O)[C@H]4Cc5ccc(O)c6c5[C@@]3(CCN4C)C2O6)OC1=O (stereo in doubt; 5b) [listing 2 of 2 here]
IC50 (Opioid receptor [1]): 35 nM
IC50 (Opioid receptor [2]): 250 nM

Oc1ccc2c3c1OC1C4(CCC5(O)[C@@H](C2)N(CC2CC2)CC[C@]315)CO4 (stereo in doubt; 13a) [listing 2 of 2 here]
IC50 (Opioid receptor [1]): 5.1 nM
IC50 (Opioid receptor [2]): 3.4 nM

CCOC(=O)[C@H]1OC12CCC1(O)C3Cc4ccc(O)c5c4[C@@]1(CCN3C)C2O5 (stereo partly specified)
IC50 (Opioid receptor [1]): 70 nM
IC50 (Opioid receptor [2]): 1000 nM
Ratio [3]: 14.2

C=C1C(=O)OC2=C1CC1(O)[C@H]3Cc4ccc(O)c5c4[C@@]1(CCN3CC1CC1)C2O5 (stereo partly specified)
IC50 (Opioid receptor [1]): 100 nM
IC50 (Opioid receptor [2]): 50 nM
Ratio [3]: 0.5

Oc1ccc2c3c1OC1C4(CCC5(O)[C@@H](C2)N(CC2CC2)CC[C@]315)CO4 (stereo in doubt; 12a) [listing 2 of 2 here]
Ratio [3]: 0.5

CC1=CC2(CCC3(O)C4Cc5ccc(O)c6c5[C@@]3(CCN4C)C2O6)OC1=O (stereo partly specified)
IC50 (Opioid receptor [1]): 200 nM
IC50 (Opioid receptor [2]): > 1000 nM
Ratio [3]: > 5

C=C1CC2(CCC3(O)[C@H]4Cc5ccc(O)c6c5[C@@]3(CCN4CC3CC3)C2O6)OC1=O (stereo in doubt; 6a) [listing 2 of 2 here]
Ratio [3]: 1.2

CN1CC[C@]23c4c5ccc(O)c4OC2C2(CCC3(O)C1C5)CO2 (stereo partly specified)
IC50 (Opioid receptor [1]): 8 nM
IC50 (Opioid receptor [2]): 60 nM
Ratio [3]: 7.5

CCOC(=O)[C@@H]1OC12CCC1(O)[C@H]3Cc4ccc(O)c5c4[C@@]1(CCN3CC1CC1)C2O5 (stereo partly specified)
IC50 (Opioid receptor [1]): 6 nM
Ratio [3]: 1
